Results published in US4525360A, “Anti-psychotic phenylindene derivatives and acid addition salts thereof” (Kefalas A/S, priority 1982, dated 1985).
Structures can show the parent of a compound that is named as a salt. Where two headings read alike, the source gives them in different places.

Columns and labels:
[1] = Catalepsy wire mesh, rat, max.; type: in vivo, rats; conditions: po, read-out: Catalep. ED50 (po)
Method: Catalepsy wire mesh, rat, max. (ED50 μmol/kg p.o.)
A vertical wire netting (50 cm×49 cm). The meshes (openings) of the netting are square (1 cm×1 cm). The wire diameter is 2 mm.
The animals are labeled and used in groups of five. The test substance is administered orally (p.o.) at 4 dose levels selected from a fixed dose scale.
The animals are placed in the middle of the vertical wire netting 60, 120, 180, 240, 300 and 360 minutes after administration of the test compound. The animals are considered cataleptic when they remain immobile during a period of 15 seconds. This cataleptic reaction is designated +.
If the rats are "atonic" and passively slide down the wire mesh they are considered not cataleptic. If the animals climb up and down the wire mesh they are nor cataleptic. In both situations the designation - is used.

[2] = system: 5-HT, rat fundus strip; assay: 5-HT antagonism, rat fundus strip; conditions: read-out: 5HT rat-fundus-strip IC50
Method: 5-HT antagonism, rat fundus strip
5-hydroxytryptamine (5-HT).
Rats are killed by a blow on the head and exsanguinated. The stomach fundus is removed and carefully cleaned with Krebs solution at 30° C. The fundus is then stretched over a rounded end of a plastic rod about the thickness of a pencil, whereby the longitudinal direction of the muscle fibers is visible. The fundus is halved by carefully cutting in the central line and in the direction of these fibres. Along this incision two strips with a length of 15-25 mm and with width 1.5-2.5 mm are cut, one from each half of the fundus. The mucosa is then carefully removed. A thread is attached to each end of a strip. One thread is fixed to a pin in the bottom of the organ bath and the other thread is fixed to an isotonic transducer. The strip is kept under a tone of 1.5 to 2.0 g. […] Concentration response curves to 5-HT are obtained by adding 5-HT to the bath in increasing concentrations (0.1 ml of 10^-9 M resulting in 1.0×10^-11 M in the bath, 0.2 ml of 10^-9 M resulting in 3.0×10^-11 M, 0.1 ml of 10^-8 M resulting in about 1×10^-10 M, 0.2 ml of 10^-8 M resulting in about 3×10^-10 M--0.2 ml of 10^-4 resulting in about 3×10^-6 M in the bath). Each concentration of 5-HT is allowed to exert its maximal effect (1-10 min) before the next is added. When the maximal response is reached the tissue is carefully washed. The test substance is added to the bath for 10 min. before examining its effect on a new cumulative 5-HT concentration response curve. From the control concentration effect curve the Km for 5-HT is calculated.
The results are recorded as mean percentage inhibition.
Substrate concentration for 5-HT: 1.0×10^-9 M to 1.0×10^-8 M.
Michaelis-Menten constant for 5-HT is estimated each time.

[3] = system: methylphenidate; assay: Methylphenidate antagonism, mice i.p.; type: in vivo; conditions: Mus musculus, ip
Method: Methylphenidate antagonism (ED50 μmol/kg i.p.)
Perspex observation cages without bottom and lid, consisting of 5 sections each measuring 12×25×30 cm.
Two hours after injection of test substance, methylphenidate, 60 mg/kg, is injected s.c. After administration of methylphenidate the mice are placed in the observation cages, 2 in each cage, where they remain for exactly 1 hour. The cages are placed on corrugated paper, the corrugations facing upwards. It is examined whether the mice have been biting the corrugated paper or not.
The result is stated in fractions: 0/3, 1/3, 2/3 and 3/3 where 0, 1, 2 and 3 are the number of pairs which have not been biting on receipt of the dose in question.

[4] = Table 1, rat, p.o., max. effect within 6 h
[5] = Table 1, mice, i.p., 2 h before methylphenidate 60 mg/kg s.c., read-out: MePh Antag. ED50 (ip)
[6] = 10 min, Table 1, rat fundus strip in vitro, 10 min pre-exposure
[7] = read-out: MePh Antag. ED50 (ip)
[8] = Table 2, hydroxyindane intermediates, mice, i.p., read-out: MePh Antag. ED50

CN(C)CCCN1c2ccccc2Sc2ccc(Cl)cc21 [Chlorpromazine, reference compound]
ED50 ([1]; Rattus norvegicus, 6 h): 70 µmol/kg
IC50 ([2]; Rattus norvegicus, 10 min): > 5000 nM

CN1CCC(=C2C=C(c3ccc(F)cc3)c3ccc(F)cc32)CC1 [Lu 19-151, 6-Fluoro-3-(4'-fluorophenyl)-1-(1-methyl-4-piperidylidenyl)-2-indene, hydrochloride]
ED50 [1, 4]: 32.9 µmol/kg
ED50 [3, 5]: 32.5 µmol/kg
IC50 [2, 6]: 7500 nM

Cc1ccc2c(c1)C(C1=CCN(C)CC1)C=C2c1ccc(F)cc1 (stereo not drawn) [Lu 20-040, 3-(4'-Fluorophenyl)-6-methyl-1-(1-methyl-1,2,3,6-tetrahydropyrid-4-yl)-2-indene, hydrobromide]
ED50 [1, 4]: 5.5 µmol/kg
ED50 [3, 5]: 0.7 µmol/kg
IC50 [2, 6]: 62 nM

OCCN1CC=C(C2=CC(c3ccc(F)cc3)c3ccc(F)cc32)CC1 (stereo not drawn) [Lu 19-157, 6-Fluoro-3-(4'-fluorophenyl)-1-(1-hydroxyethyl-1,2,3,6-tetrahydropyrid-4-yl)-1-indene, hydrobromide]
ED50 [1, 4]: 55.3 µmol/kg
ED50 [3, 5]: 15.8 µmol/kg
IC50 [2, 6]: 330 nM

CN1CCC(C2=CC(c3ccc(F)cc3)c3ccc(F)cc32)CC1 (stereo not drawn) [Lu 20-028, 6-Fluoro-3-(4'-fluorophenyl)-1-(1-methyl-4-piperidyl)-1-indene, hydrobromide]
ED50 [1, 4]: 6.2 µmol/kg
ED50 [3, 5]: 0.78 µmol/kg
IC50 [2, 6]: 200 nM

O=C1NCCN1CCN1CCC(C2=CC(c3ccc(F)cc3)c3ccc(F)cc32)CC1 (stereo not drawn) [Lu 20-087, 6-Fluoro-3-(4'-fluorophenyl)-1-(1-(2-imidazolidinon-1-ylethyl)-4-piperidyl)-1-indene, oxalate]
ED50 [3, 5]: 10.8 µmol/kg

O=C(CCCN1CCC(O)(c2ccc(Cl)cc2)CC1)c1ccc(F)cc1 [Haloperidol, reference compound]
ED50 ([1]; Rattus norvegicus, 6 h): 1 µmol/kg
ED50 [3, 7]: 0.11 µmol/kg

Cc1ccc2c(c1)C(C1=CCN(C)CC1)=CC2c1ccc(F)cc1 (stereo not drawn) [Lu 20-041, 3-(4'-Fluorophenyl)-6-methyl-1-(1-methyl-1,2,3,6-tetrahydropyrid-4-yl)-1-indene, hydrobromide]
ED50 [1, 4]: 1.6 µmol/kg
ED50 [3, 5]: 0.14 µmol/kg
IC50 [2, 6]: 85 nM

COc1ccc2c(c1)C(C1CCN(CCO)CC1)=CC2c1ccc(F)cc1 (stereo not drawn) [Lu 20-033, 3-(4'-Fluorophenyl)-1-(1-hydroxyethyl-4-piperidyl)-6-methoxy-1-indene, hydrobromide]
ED50 [1, 4]: 6.2 µmol/kg
ED50 [3, 5]: 18.3 µmol/kg
IC50 [2, 6]: 160 nM

Cc1ccc2c(c1)C(C1CCN(CCN3CCOC3=O)CC1)=CC2c1ccc(F)cc1 (stereo not drawn) [Lu 21-002, 3-(4'-Fluorophenyl)-6-methyl-1-(1-(2-oxazolidinon-3-ylethyl)-4-piperidyl)-1-indene, trifluoroacetate]
ED50 [3, 5]: 1.7 µmol/kg

CC(C)c1ccc2c(c1)C(C1CCN(CCO)CC1)=CC2c1ccc(F)cc1 (stereo not drawn) [Lu 20-109, 3-(4'-Fluorophenyl)-1-(1-hydroxyethyl-4-piperidyl)-6-(2-propyl)-1-indene, hydrochloride]
ED50 [3, 5]: 1.1 µmol/kg

Cc1ccc2c(c1)C(=C1CCN(CCO)CC1)C=C2c1ccc(F)cc1 [Lu 20-044, 3-(4'-Fluorophenyl)-1-(1-hydroxyethyl-4-piperidylidenyl)-6-methyl-2-indene,hydrobromide]
ED50 [3, 5]: 5.1 µmol/kg
IC50 [2, 6]: 280 nM

OCCN1CCN(CCCN2c3ccccc3Sc3ccc(C(F)(F)F)cc32)CC1 [Fluphenazine, reference compound]
ED50 ([1]; Rattus norvegicus, 6 h): 0.55 µmol/kg
ED50 [3, 7]: 0.07 µmol/kg

O=C1NCCN1CCN1CCC(C2C=C(c3ccc(F)cc3)c3ccccc32)CC1 (stereo not drawn) [Lu 20-082, 3-(4'-Fluorophenyl)-1-(1-(2-imidazolidinon-1-ylethyl)-4-piperidyl)-2-indene]
ED50 [3, 5]: 70.9 µmol/kg
IC50 [2, 6]: 1500 nM

Cc1ccc2c(c1)C(C1CCN(CCN3CCNC3=O)CC1)=CC2c1ccc(F)cc1 (stereo not drawn) [Lu 20-064, 3-(4'-Fluorophenyl)-1-(1-(2-imidazolidinon-1-ylethyl)-4-piperidyl)-6-methyl-1-indene, oxalate]
ED50 [1, 4]: 6.7 µmol/kg
ED50 [3, 5]: 0.86 µmol/kg
IC50 [2, 6]: 22 nM

Cc1ccc2c(c1)C(C1CCN(CCO)CC1)C=C2c1ccc(F)cc1 (stereo not drawn) [Lu 20-039, 3-(4'-Fluorophenyl)-1-(1-hydroxyethyl-4-piperidyl)-6-methyl-2-indene, hydrobromide]
ED50 [1, 4]: > 93 µmol/kg
ED50 [3, 5]: 93 µmol/kg
IC50 [2, 6]: 1900 nM

OC1(C2CCNCC2)CC(c2ccc(F)cc2)c2ccc(F)cc21 (stereo not drawn) [Lu 19-139, 6-Fluoro-3-(4'-fluorophenyl)-1-hydroxy-1-(4-piperidyl)indane]
ED50 [3, 8]: 15.6 µmol/kg

CN1CC=C(C2=CC(c3ccc(F)cc3)c3ccc(Cl)cc32)CC1 (stereo not drawn) [Lu 20-079, 6-Chloro-3-(4'-fluorophenyl)-1-(1-methyl-1,2,3,6-tetrahydropyrid-4-yl)-1-indene, hydrobromide]
ED50 [3, 5]: 3 µmol/kg

CC(C)c1ccc2c(c1)C(C1=CCN(C)CC1)=CC2c1ccc(F)cc1 (stereo not drawn) [Lu 20-099, 3-(4'-Fluorophenyl)-1-(1-methyl-1,2,3,6-tetrahydropyrid-4-yl)-6-(2-propyl)-1-indene, hydrobromide]
ED50 [3, 5]: 5.6 µmol/kg
IC50 [2, 6]: 5000 nM

O=C1NCCN1CCN1CCC(C2=CC(c3ccc(F)cc3)c3ccccc32)CC1 (stereo not drawn) [Lu 20-078, 3-(4'-Fluorophenyl)-1-(1-(2-imidazolidinon-1-ylethyl)-4-piperidyl)-1-indene, oxalate]
ED50 [3, 5]: 16.5 µmol/kg
IC50 [2, 6]: 120 nM

Cc1ccc2c(c1)C(O)(C1=CCN(CCO)CC1)CC2c1ccc(F)cc1 (stereo not drawn) [Lu 19-154, 3-(4'-Fluorophenyl)-1-hydroxy-1-(1-hydroxyethyl-1,2,3,6-tetrahydropyrid-4-yl)-6-methylindane]
ED50 [3, 8]: 6.2 µmol/kg
IC50 ([2]; Table 2, hydroxyindane intermediates, rat fundus strip in vitro): 5.4 nM

CN1CC=C(C2=CC(c3ccc(F)cc3)c3ccc(F)cc32)CC1 (stereo not drawn) [Lu 20-025, 6-Fluoro-3-(4'-fluorophenyl)-1-(1-methyl-1,2,3,6-tetrahydropyrid-4-yl)-1-indene, hydrobromide]
ED50 [1, 4]: 5.3 µmol/kg
ED50 [3, 5]: 7.6 µmol/kg
IC50 [2, 6]: 240 nM

COc1ccc2c(c1)C(C1=CCN(CCO)CC1)=CC2c1ccc(F)cc1 (stereo not drawn) [Lu 20-021, 3-(4'-Fluorophenyl)-1-(1-hydroxyethyl-1,2,3,6-tetrahydropyrid-4-yl)-6-methoxy-1-indene, hydrobromide]
ED50 [3, 5]: 11.6 µmol/kg
IC50 [2, 6]: 500 nM

CN1CCC(C2C=C(c3ccc(F)cc3)c3ccc(F)cc32)CC1 (stereo not drawn) [Lu 19-004, 6-Fluoro-3-(4'-fluorophenyl)-1-(1-methyl-4-piperidyl)-2-indene]
ED50 [1, 4]: 64.2 µmol/kg
ED50 [3, 5]: 12.2 µmol/kg
IC50 [2, 6]: 1100 nM

Cc1ccc2c(c1)C(O)(C1=CCN(C)CC1)CC2c1ccc(F)cc1 (stereo not drawn) [Lu 19-131, 3-(4'-Fluorophenyl)-1-hydroxy-6-methyl-1-(1-methyl-1,2,3,6-tetrahydropyrid-4-yl)indane]
ED50 [3, 8]: 14.8 µmol/kg

Cc1ccc2c(c1)C(C1CCN(C)CC1)=CC2c1ccc(F)cc1 (stereo not drawn) [Lu 20-048, 3-(4'-Fluorophenyl)-6-methyl-1-(1-methyl-4-piperidyl)-1-indene, hydrobromide]
ED50 [1, 4]: 3.4 µmol/kg
ED50 [3, 5]: 0.53 µmol/kg
IC50 [2, 6]: 42 nM

Cc1ccc2c(c1)C(C1=CCN(CCO)CC1)C=C2c1ccc(F)cc1 (stereo not drawn) [Lu 20-038, 3-(4'-Fluorophenyl)-1-(1-hydroxyethyl-1,2,3,6-tetrahydropyrid-4-yl)-6-methyl-2-indene, hydrobromide]
ED50 [1, 4]: 3.8 µmol/kg
ED50 [3, 5]: 0.89 µmol/kg
IC50 [2, 6]: 28 nM
